Assay results as given in paper PMC8187206 (Pharmacological Reports, 2020).

Assays:
[1] = diabetic animals (streptozotocin-induced for sunitinib and lapatinib, alloxan-induced rabbits for erlotinib); cited from earlier work
[2] = Plasma pharmacokinetics of sorafenib and sorafenib N-oxide after single oral sorafenib in diabetic and healthy rats (HPLC-UV, non-compartmental analysis); format: in vivo, Wistar-strain rats; conditions: single oral sorafenib 100 mg/kg
Method: The experimental protocol for this study was reviewed and approved by the Local Ethics Committee. All procedures were performed in accordance with European Union regulations concerning the handling and use of laboratory animals. The study was conducted following the principles of the 3Rs (Replacement, Reduction and Refinement). Adult male Wistar-strain rats (weight 400–445 g) were used in the study. The animals were maintained under standard breeding conditions with a 12 h light–12 h dark cycle at constant room temperature (23 ± 2 °C), relative humidity (55 ± 10%) and given ad libitum access to feed and water. After acclimatisation the rats were randomly assigned into two groups: the diabetic group (DG) (n = 8) and the healthy group (HG) (n = 8).
(§1) DG rats were fed a high-fat diet (Labofeed B, 60% fat; Morawski, Poland) for a period of 4 weeks to induce insulin resistance. After 2 weeks of dietary manipulation the animals were intraperitoneally injected with STZ (35 mg/kg body weight in 1000 μL of sterile citrate buffer, pH 4.2). Citrate buffer was injected as a vehicle in HG. The high-fat diet was continued for subsequent 2 weeks in the DG. The rats in the HG were fed with standard diet (Labofeed B, 8% fat) and water ad libitum. The rats with the blood glucose level ≥ 250 mg/dL were considered diabetic and qualified for this study. The percentage reduction of the glucose levels in the rats was calculated using the following formula: %Reductionglucose=(V0-Vt)·100/V0, where V0 glucose concentration at baseline and Vt glucose concentration at the time of maximum reduction.
(§2) After injecting streptozotocin 10% glucose solution was additionally administered for 24 h to prevent hypoglycaemia. […] The drug was dissolved in 1 mL 10% DMSO and administered orally by means of a gastric feeding tube. 0.1 mL blood samples were collected from rats by cutting a piece of their tails. The samples were collected at the following time points: 0, 0.5, 1, 1.5, 2, 3, 4, 5, 6, 7, 8, 10, 12, 24, 30, 48, 72, 96 h. Each time on blood collection glycaemia was measured.
The validation was performed according to the guidelines of the European Medicines Agency (EMA) concerning validation of bioanalytical methods. Chromatographic analysis was conducted on a Alliance® system with 2695 Separation Module and a Dual Lambda (λ) absorbance detector (Waters Corporation®, USA). Data acquisition was performed using Empower software v. 1154. Separation was carried out on Symmetry® C8 column (250 mm × 4.6 mm, 5.0 µm particle size, Waters Corporation®, USA). The column temperature was maintained at 25 °C. The mobile phase consisted of ammonium acetate 0.1 M pH = 3.4 (adjusted with glacial acetic acid) (solvent A) and acetonitrile (solvent B). The following gradient was used: the percentage A was decreased from 60 to 29%, while at the same time over 21 min percentage B increased linearly from 40 to 71%. The UV detection wavelength was set at 265 nm, and the injection volume was 20 µL. The volume of the analyzed rat plasma was 25 µL. The samples were determined using liquid–liquid extraction.
The maximum plasma concentration (Cmax) and the time to reach the maximum plasma concentration (tmax) were obtained directly from the concentration—time data. The elimination rate constant (kel) was estimated from the slope of the terminal linear segment of the log mean concentration-time plot using the automatic best-fitting option in WinNonlin 8.1. The elimination half-life (t1/2kel) was calculated from ln2/kel. The area under the concentration-time curve from zero to the time of the last concentration measured (AUC0−t) was calculated by a linear trapezoidal rule and the residual area under the curve (AUCres) was estimated by extrapolation from the last concentration measured (Clast) to infinity using Clast/kel ratio. The area under curve from zero to infinity (AUC0−∞) was computed as a sum of AUC0−t and AUCres.

[3] = Effect of a single sorafenib dose on blood glucose level (glycaemia); format: in vivo, Wistar-strain rats; conditions: control group (healthy rats), single oral sorafenib 100 mg/kg
Method: as §1, §2

[4] = test system: streptozotocin-induced diabetic rats; experiment: as above; format: in vivo, Wistar-strain rats; conditions: DG group (diabetic rats), single oral sorafenib 100 mg/kg
Method: as §1, §2

patients = conditions: multiple administration of the TKI; cited from earlier work
[5] = cited from earlier work
[6] = increase in diabetic versus healthy rats

Compound | Cmax in diabetic animals [1] | total exposure in diabetic animals [1] | AUC0−t higher in the DG when compared to the HG [2, 6] [%] | AUC0−∞ higher in the DG when compared to the HG [2, 6] [%] | Cmax higher in the DG when compared to the HG [2, 6] [%] | also measured
C#Cc1cccc(Nc2ncnc3cc(OCCOC)c(OCCOC)cc23)c1 [erlotinib] | significantly increased | significantly increased | – | – | – | –
CNC(=O)c1cc(Oc2ccc(NC(=O)Nc3ccc(Cl)c(C(F)(F)F)c3)cc2)ccn1 [Sorafenib] | – | – | 66.4 | 56.0 | 88.7 | Cl/F decreased in diabetic animals ([2]; decrease in diabetic versus healthy rats): 40%; glucose levels [3]: did not decrease; time of maximum reduction of glycaemia after the sorafenib administration [4]: 1.5 to 11 h; maximum reduction of glycaemia ([4]; (V0-Vt)·100/V0): 11.2–50.8%; effect on blood glucose after multiple administration (patients): hypoglycaemic effect
CS(=O)(=O)CCNCc1ccc(-c2ccc3ncnc(Nc4ccc(OCc5cccc(F)c5)c(Cl)c4)c3c2)o1 [lapatinib] | significantly increased | significantly increased | – | – | – | –
CNC(=O)c1cc(Oc2ccc(NC(=O)Nc3ccc(Cl)c(C(F)(F)F)c3)cc2)cc[n+]1[O-] [Sorafenib N-oxide, sorafenib N-oxide] | – | – | 112.55 | 91.87 | 119.57 | AUMC0-t increase in the DG [2, 6]: 134.31%; AUMC0-∞ increase in the DG [2, 6]: 85.33%; share of circulating substances at steady state [5]: 9–16%
CCN(CC)CCNC(=O)c1c(C)[nH]c(/C=C2\C(=O)Nc3ccc(F)cc32)c1C [sunitinib] | significantly increased | significantly increased | – | – | – | –
